The target of the assay is T1, prolyl endopeptidase (Sus scrofa, UniProt P23687).
T1 construct: swine kidney-derived prolyl endopeptidase; from tissue; host or cells: swine kidney
In words: Enzyme inhibitory action on swine kidney-derived prolyl endopeptidase (Z-Gly-Pro-β-naphthylamide substrate). It counts as biochemical. As to conditions: for IC50: swine kidney prolyl endopeptidase, 0.1 mM substrate, 37° C., 30 minutes, pH 7.5; for prolyl endopeptidase inhibition activity (in words): in vitro, qualitative statement. The method, then:
Using 0.1 mM of benzyolxycarbonylglycylproline-β-naphthylamide as substrate and swine kidney-derived prolyl endopeptidase as enzyme, the enzyme was acted on the substrate at 37° C. for 30 minutes in 0.025 M Tris(hydroxymethyl)methane amine-hydrochloric acid (pH 7.5) solution. Fast Garnet was added to form a color and absorbance was measured at 525 nm. The inhibitory activity is expressed in terms of concentration required for 50% inhibition (IC50).

The IC50 is the concentration at which inhibition is half-maximal. A lower IC50 goes with inhibition by little substance.

T1 sequence (P23687 whole entry): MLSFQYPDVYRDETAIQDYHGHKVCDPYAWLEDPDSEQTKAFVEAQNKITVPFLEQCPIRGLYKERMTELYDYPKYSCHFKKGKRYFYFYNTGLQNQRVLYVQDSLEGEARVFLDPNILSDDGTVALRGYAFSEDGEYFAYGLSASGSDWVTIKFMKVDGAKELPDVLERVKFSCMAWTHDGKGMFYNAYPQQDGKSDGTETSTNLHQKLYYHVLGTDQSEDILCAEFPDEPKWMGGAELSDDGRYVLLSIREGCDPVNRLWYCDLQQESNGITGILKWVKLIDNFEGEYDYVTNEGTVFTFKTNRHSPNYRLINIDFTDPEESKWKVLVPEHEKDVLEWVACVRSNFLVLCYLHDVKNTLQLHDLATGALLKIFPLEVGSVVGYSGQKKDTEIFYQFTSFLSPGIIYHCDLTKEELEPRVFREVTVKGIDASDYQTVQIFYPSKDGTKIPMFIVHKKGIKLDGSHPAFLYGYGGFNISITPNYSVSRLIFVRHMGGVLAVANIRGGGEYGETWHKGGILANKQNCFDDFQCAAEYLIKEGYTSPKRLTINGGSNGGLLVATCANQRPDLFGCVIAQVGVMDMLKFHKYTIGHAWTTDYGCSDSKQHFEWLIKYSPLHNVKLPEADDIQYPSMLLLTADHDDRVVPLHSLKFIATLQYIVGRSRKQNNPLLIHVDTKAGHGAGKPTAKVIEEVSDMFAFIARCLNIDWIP

Regarding `CC(C)C(NC(=O)OCc1ccccc1)C(=O)N1CCCC1C(=O)C(=O)NC1CCCCC1` (centres unmarked) [Example 4, N-cyclohexyl-2-oxo-2-[2-(1-(N-benzyloxycarbonylvalyl)pyrrolidinyl)]acetamide], the 50% inhibitory concentration (IC50) is 1.09 nM. For the compound `CC(C)C(NC(=O)c1cccc(Oc2ccccc2)c1)C(=O)N1CCCC1C(=O)C(=O)NC1CCCCC1` (centres unmarked) [Example 7, N-cyclohexyl-2-oxo-2-[2-(1-(N-(3-phenoxybenzoyl)valyl)pyrrolidinyl)]acetamide], the midpoint of inhibition, the IC50, lay at 0.962 nM. Same read-out and setting: the value for `CC(C)C(NC(=O)c1ccc2ccccc2n1)C(=O)N1CCCC1C(=O)C(=O)NC1CCCCC1` (centres unmarked) [Example 9, N-Cyclohexyl-2-oxo-2-[2-(1-(N-(2-quinolinecarbonyl)valyl)pyrrolidinyl)]acetamide] was 1.34 nM. In the case of `O=C(NC1CCCC1)C(=O)C1CCCN1C(=O)C(Cc1ccccc1)NC(=O)c1cccc(Oc2ccccc2)c1` (centres unmarked) [Example 13, N-Cyclopentyl-2-oxo-2-[2-(1-(N-(3-phenoxybenzoyl)phenylalanyl)pyrrolidinyl)]acetamide], the “prolyl endopeptidase inhibition activity (in words)” value is “potent inhibition activity on almost the same level” and the IC50 was 1.48 nM. Consider `CC(C)(C)OC(=O)NC(Cc1ccccc1)C(=O)N1CCCC1C(=O)C(=O)NC1CCCCC1` (centres unmarked) [Example 15, N-Cyclohexyl-2-oxo-2-[2-(1-(N-t-butoxycarbonylphenylalanyl)pyrrolidinyl)]acetamide], for which the half-maximal inhibitory concentration (IC50) was 3.18 nM. Still for that read-out and setting: the value for `O=C(NC1CCCCC1)C(=O)C1CCCN1C(=O)C(Cc1ccccc1)NC(=O)c1cccs1` (centres unmarked) [Example 18, N-Cyclohexyl-2-oxo-2-[2-(1-(N-(2-thenoyl)phenylalanyl)pyrrolidinyl)]acetamide] was 2.28 nM; that for `O=C(COc1ccccc1)NC(Cc1ccccc1)C(=O)N1CCCC1C(=O)C(=O)NC1CCCCC1` (centres unmarked) [Example 20, N-Cyclohexyl-2-oxo-2-[2-(1-(N-phenoxyacetylphenylalanyl)pyrrolidinyl)]acetamide] was 1.58 nM; that for `O=C(NC1CCCCC1)C(=O)C1CCCN1C(=O)C(Cc1ccccc1)NC(=O)c1ccc2ccccc2c1` (centres unmarked) [Example 22, N-Cyclohexyl-2-oxo-2-[2-(1-(N-(2-naphthoyl)phenylalanyl)pyrrolidinyl)]acetamide] was 3.23 nM. Still for that read-out and setting: the value for `O=C(Cc1ccccn1)NC(Cc1ccccc1)C(=O)N1CCCC1C(=O)C(=O)NC1CCCCC1` (centres unmarked) [Example 24, N-Cyclohexyl-2-oxo-2-[2-(1-(N-(2-pyridyl)acetylphenylalanyl)pyrrolidinyl)]acetamide] was 2.24 nM. As to `O=C(NC1CCCCC1)C(=O)C1CCCN1C(=O)C(Cc1ccccc1)NC(=O)c1cccc(Oc2ccccc2)c1` (centres unmarked) [Example 28, N-Cyclohexyl-2-oxo-2-[2-(1-(N-(3-phenoxybenzoyl)phenylalanyl)pyrrolidinyl)]acetamide], the “prolyl endopeptidase inhibition activity (in words)” value is recorded as “potent inhibition activity on almost the same level” and 1.14 nM corresponded to half-maximal inhibition (IC50).

`O=C(C=Cc1ccco1)NC(Cc1ccccc1)C(=O)N1CCCC1C(=O)C(=O)NC1CCCCC1` (centres unmarked) [Example 31, N-Cyclohexyl-2-oxo-2-[2-(1-(N-(3-(2-furyl)acryloyl)-phenylalanyl)pyrrolidinyl)]acetamide]: the midpoint of inhibition, the IC50, lay at 6.31 nM. Still for that read-out and setting: then `O=C(CCC1CCCCC1)NC(Cc1ccccc1)C(=O)N1CCCC1C(=O)C(=O)NC1CCCCC1` (centres unmarked) [Example 33, N-Cyclohexyl-2-oxo-2-[2-(1-(N-(3-cyclohexylpropionyl)-phenylalanyl)pyrrolidinyl)]acetamide], with 0.981 nM. For the compound `O=C(NC1CCCCCC1)C(=O)C1CCCN1C(=O)C(Cc1ccccc1)NC(=O)c1cccc(Oc2ccccc2)c1` (centres unmarked) [Example 41, N-Cycloheptyl-2-oxo-2-[2-(1-(N-(3-phenoxybenzoyl)-phenylalanyl)pyrrolidinyl)]acetamide], the “prolyl endopeptidase inhibition activity (in words)” value was “potent inhibition activity on almost the same level” and the midpoint of inhibition, the IC50, lay at 1.38 nM. As to `O=C(NC1CCCCC1)C(=O)C1CCCN1C(=O)C(Cc1ccccc1)NC(=O)c1ccccc1` (centres unmarked) [Example 43, N-Cyclohexyl-2-oxo-2-[2-(1-(N-benzoylphenylalanyl)pyrrolidinyl)]acetamide], the half-inhibitory concentration (IC50) was 1.89 nM. The same measure, in the same setting: the value for `O=C(NC(Cc1ccccc1)C(=O)N1CCCC1C(=O)C(=O)NC1CCCCC1)OCc1ccccc1` (centres unmarked) [Example 45, N-Cyclohexyl-2-oxo-2-[2-(1-(N-benzyloxycarbonylphenylalanyl)pyrrolidinyl)]acetamide] was 2.37 nM. The same measure, in the same setting: then `O=C(CSc1ccccc1)NC(Cc1ccccc1)C(=O)N1CCCC1C(=O)C(=O)NC1CCCCC1` (centres unmarked) [Example 47, N-Cyclohexyl-2-oxo-2-[2-(1-(N-(phenylthioacetyl)-phenylalanyl)pyrrolidinyl)]acetamide], with 1.53 nM. Still for that read-out and setting: the value for `O=C(NC1CCCCC1)C(=O)C1CCCN1C(=O)C(Cc1ccccc1)NC(=O)c1ccncc1` (centres unmarked) [Example 49, N-Cyclohexyl-2-oxo-2-[2-(1-(N-(isonicotinonyl)-phenylalanyl)pyrrolidinyl)]acetamide] was 6.5 nM; that for `O=C(CSc1ccncc1)NC(Cc1ccccc1)C(=O)N1CCCC1C(=O)C(=O)NC1CCCCC1` (centres unmarked) [Example 51, N-Cyclohexyl-2-oxo-2-[2-(1-(N-(4-pyridylthioacetyl)-phenylalanyl)pyrrolidinyl)]acetamide] was 2.68 nM. As to `O=C(NC1CCCCC1)C(=O)C1CCCN1C(=O)C(Cc1ccccc1)NC(=O)c1cccnc1` (centres unmarked) [Example 53, N-Cyclohexyl-2-oxo-2-[2-(1-(N-(nicotinonyl)phenylalanyl)pyrrolidinyl)]acetamide], inhibition was half-maximal at 4.2 nM (IC50). The same measure, in the same setting: then `O=C(NC1CCCCC1)C(=O)C1CCCN1C(=O)C1CCCN1C(=O)CSc1ccncc1` (centres unmarked) [Example 55, N-Cyclohexyl-2-oxo-2-[2-(1-(N-(4-pyridylthioacetyl)prolyl)pyrrolidinyl)]acetamide], with 1.69 nM.

`O=C(NC1CCCCC1)C(=O)C1CCCN1C(=O)[C@H](Cc1ccccc1)NC(=O)c1ccc(CN2CCOCC2)cc1` (some centres unmarked) [Example 57, N-Cyclohexyl-2-oxo-2-[2-(1-(N-(4-morpholinomethylbenzoyl)phenylalanyl)pyrrolidinyl)]acetamide] gave an IC50 of 9.4 nM.

The compound `O=C(NC1CCCCC1)C(=O)C1CCCN1C(=O)CN(Cc1ccccc1)C(=O)c1ccncc1` (centres unmarked) [Example 60, N-Cyclohexyl-2-oxo-2-[2-(1-(N-isonicotinonyl-N-benzylglycyl)pyrrolidinyl)]acetamide] had an IC50 of 8.81 nM. With `O=C(NC1CCCCC1)C(=O)C1CCCN1C(=O)c1ccc2ccccc2n1` (centres unmarked) [Example 66, N-Cyclohexyl-2-oxo-2-[2-(1-(2-quinolylcarbonyl)pyrrolidinyl)]acetamide], the IC50 is 26.4 nM. This IC50 lies about 3-fold higher than the previous one.

Compound `O=C(NC1CCCCC1)C(=O)C1CCCN1C(=O)C=Cc1ccccc1` (centres unmarked) [Example 68, N-Cyclohexyl-2-oxo-2-[2-(1-cinnamoylpyrrolidinyl)]acetamide] showed an IC50 of 48 nM. `O=C(NC1CCCCC1)C(=O)C1CCCN1C(=O)C=Cc1ccc(Cl)cc1` (centres unmarked) [Example 70, N-Cyclohexyl-2-oxo-2-[2-(1-(3-(4-chlorophenyl)acryloyl)pyrrolidinyl)]acetamide]: the IC50 is 111 nM. Same read-out and setting: the value for `O=C(NC1CCCCC1)C(=O)C1CCCN1C(=O)C=Cc1cccnc1` (centres unmarked) [Example 72, N-Cyclohexyl-2-oxo-2-[2-(1-(3-(3-pyridyl)acryloyl)pyrrolidinyl)]acetamide] was 239 nM.

With `O=C(NC1CCCCC1)C(=O)C1CCCN1C(=O)c1ccccn1` (centres unmarked) [Example 74, N-Cyclohexyl-2-oxo-2-[2-(1-(2-pyridylcarbonyl)pyrrolidinyl)]acetamide], the 50% inhibitory concentration (IC50) is 97.1 nM.

In the case of `O=C(NC1CCCCC1)C(=O)C1CCCN1C(=O)c1cccc(Oc2ccccc2)c1` (centres unmarked) [Example 76, N-Cyclohexyl-2-oxo-2-[2-(1-(3-phenoxybenzoyl)pyrrolidinyl)]acetamide], the 50% inhibitory concentration (IC50) is 13.8 nM. For `O=C(NC1CCCCCC1)C(=O)C1CCCN1C(=O)c1ccc2ccccc2c1` (centres unmarked) [Example 78, N-Cycloheptyl-2-oxo-2-[2-(1-(2-naphthoyl)pyrrolidinyl)]acetamide], inhibition was half-maximal at 23.4 nM (IC50).

With `O=C(NC1CCCCC1)C(=O)C1CCCN1C(=O)c1ccc(CN2CCCCC2)cc1` (centres unmarked) [Example 86, N-Cyclohexyl-2-oxo-2-[2-(1-(4-piperidinomethylbenzoyl)pyrrolidinyl)]acetamide], it took 82.2 nM to reach half-maximal inhibition (IC50).

Regarding `O=C(NC1CCCCC1)C(=O)C1CCCN1C(=O)c1ccc(Cn2ccnc2)cc1` (centres unmarked) [Example 88], the IC50 is 132 nM. Same read-out and setting: the value for `O=C(NCc1nc2ccccc2[nH]1)C(=O)C1CCCN1C(=O)c1ccc(Cl)cc1` (centres unmarked) [Example 93, N-(2-Benzimidazolylmethyl)-2-oxo-2-[2-(1-(4-chlorobenzoyl)pyrrolidinyl)]acetamide] was 134 nM; that for `O=C(NCCN1CCOCC1)C(=O)C1CCCN1C(=O)c1ccc(Cl)cc1` (centres unmarked) [Example 95, N-(2-Morpholinoethyl)-2-oxo-2-[2-(1-(4-chlorobenzoyl)-pyrrolidinyl)]acetamide] was 168 nM; that for `O=C(NCCc1ccccn1)C(=O)C1CCCN1C(=O)c1ccc(Cl)cc1` (centres unmarked) [Example 97, N-(2-(2-Pyridyl)ethyl)-2-oxo-2-[2-(1-(4-chlorobenzoyl)pyrrolidinyl)]acetamide] was 90.7 nM.

In the case of `O=C(NC1CC1)C(=O)C1CCCN1C(=O)C(Cc1ccccc1)NC(=O)c1cccc(Oc2ccccc2)c1` (centres unmarked) [Example 108, N-Cyclopropyl-2-oxo-2-[2-(1-(N-(3-phenoxybenzoyl)phenylalanyl)pyrrolidinyl)]acetamide], the “prolyl endopeptidase inhibition activity (in words)” value is “potent inhibition activity on almost the same level” and the IC50 is 1.33 nM.

On to `O=C(NC1CCCCCCC1)C(=O)C1CCCN1C(=O)C(Cc1ccccc1)NC(=O)c1cccc(Oc2ccccc2)c1` (centres unmarked) [Example 113, N-Cyclooctyl-2-oxo-2-[2-(1-(N-(3-phenoxybenzoyl)phenylalanyl)pyrrolidinyl)]acetamide], for which the “prolyl endopeptidase inhibition activity (in words)” value is “potent inhibition activity on almost the same level” and the IC50 was 1.59 nM.

These data come from patent US5756763A, “Pyrrolidine derivatives” (Zaidan Hojin Biseibutsu Kagaku Kenkyukai, priority 1993, dated 1998).
